The target of series [1] is T1, tubulin (Sus scrofa, UniProt P02550+P02554).
T1 construct: purchased cytoskeleton BK011P
In words: Inhibition test of tubulin monomer polymerization (Tubulin polymerization assay kit, fluorescence). Type of series: biochemical. The following applies: 5 µL of 12.5 µM compound solution; fluorescence ex 360 nm / em 420 nm, 37°C; larger value = lower inhibitory efficiency. As for the experimental part:
Tubulin polymerization assay kit (cytoskeleton, Cat. # BK011P) was used to conduct the compound inhibition test of tubulin monomer polymerization.
Before the test, the 96-well plate (Corning Costar, Cat. # 3686) supplied with the kit was first placed in a microplate reader (MD, SpectraMax M5) and heated to 37°C, maintained for 10 minutes. The 96-well plate was then removed, and 5 µL of 12.5 µM compound solution or blank solution was added thereto. The 96-well plate was then placed back into the microplate reader and incubated at 37°C for 1 minute to heat the compound solution to 37°C. The 96-well plate was removed and 50 µL of reaction mixture prepared according to the supplier's instructions was quickly added to each well, completing the sample addition within 1 minute to avoid the formation of bubbles. The 96-well plate was then immediately placed back into the microplate reader, shaken for 5 seconds, and using the Kinetic mode, continuous detection was carried out at 37°C for 30 to 60 minutes under the conditions of excitation light at 360 nm and emission light at 420 nm, with detection every 30 seconds. Taking the detection time as the X-axis and the fluorescence signal value as the Y-axis, the tubulin monomer polymerization curve was obtained. As shown in FIG. 66 and Table 40, the larger the Vmax value and the higher the maximum fluorescence signal value of the polymerization curve, the lower the inhibitory efficiency of the compound.

Series [2] relates to Human cutaneous squamous cell carcinoma cell A-431. Nature of the series: Cell proliferation inhibition test, A-431. In kind it is cell-based. The following applies: A-431, 96 h, 4 days incubation. As for the experimental part: (§1) Human cutaneous squamous cell carcinoma cell A-431 (ATCC, CRL-1555) and actinic keratosis patient-derived cell HT 297.T (ATCC, CRL-7782) proliferation assays were used to detect the inhibitory effect of small molecular compounds on cell proliferation.
A-431 cells and HT 297.T cells were cultured in DMEM medium containing 10% fetal bovine serum and grown at 37°C in a 5% CO2 incubator. Cells on logarithmic phase were seeded into a 96-well cell culture plate at 1000 cells/well, 100 µL per well, and then cultured overnight at 37°C in a 5% CO2 incubator. The next day, 100 µL of gradient-diluted 2× test compound solution was added to each well, with DMSO serving as a positive control, and 10 µM staurosporine (Aladdin, S102392) was set as a negative control group. After the addition of the compounds, the culture plate was incubated for another 4 days at 37°C in a 5% CO2 incubator. After incubation, the Steady-Glo® luciferase assay system (Promega, G9243) was used according to the supplier's instructions to measure the fluorescence signal value on the Envision 2104 Multilabel Reader. The inhibition rate was calculated by the following formula, then the curve was plotted with the Log value of the inhibitor concentration as the X-axis and the inhibition rate as the Y-axis, and the IC50 was calculated using Graphpad 8.0. [formula] […]

The subject of series [3] is actinic keratosis patient-derived cell HT 297.T. In words: Cell proliferation inhibition test, HT 297.T. Type of series: cell-based, Human. Conditions: Homo sapiens, 96 h; 4 days incubation. As for the experimental part:
as §1
A-431 cells and HT 297.T cells were cultured in DMEM medium containing 10% fetal bovine serum and grown at 37°C in a 5% CO2 incubator. Cells on logarithmic phase were seeded into a 96-well cell culture plate at 1000 cells/well, 100 µL per well, and then cultured overnight at 37°C in a 5% CO2 incubator. The next day, 100 µL of gradient-diluted 2× test compound solution was added to each well, with DMSO serving as a positive control, and 10 µM staurosporine (Aladdin, S102392) was set as a negative control group. After the addition of the compounds, the culture plate was incubated for another 4 days at 37°C in a 5% CO2 incubator. After incubation, the Steady-Glo® luciferase assay system (Promega, G9243) was used according to the supplier's instructions to measure the fluorescence signal value on the Envision 2104 Multilabel Reader. The inhibition rate was calculated by the following formula, then the curve was plotted with the Log value of the inhibitor concentration as the X-axis and the inhibition rate as the Y-axis, and the IC50 was calculated using Graphpad 8.0. [formula] Table 41: Inhibition results of test compounds on proliferation activity of A-431 and HT 297.T cells

Series [4] in a line: Thermodynamic solubility test. Type of series: physicochemical. Conditions: thermodynamic from solid, 4 mg/mL, overnight at room temperature. As for the experimental part:
Phosphate buffer saline (PBS) with a pH of 7.4, FeSSIF solution with a pH of 6.5, and FaSSGF solution with a pH of 1.6 were prepared. The compound was accurately weighed and added to prepared phosphate buffer saline with a pH of 7.4, FeSSIF solution with a pH of 6.5, and FaSSGF solution with a pH of 1.6 to prepare into a solution with a concentration of 4 mg/mL. The solution was shaken at a speed of 1000 rpm for 1 hour, and then incubated overnight at room temperature. The incubated solution was centrifuged at 12,000 rpm for 10 minutes to remove undissolved particles, and the supernatant was transferred to a new centrifuge tube. After the supernatant was appropriately diluted, an acetonitrile solution containing internal standard was added, and a standard curve prepared with the same matrix was used for quantification. Table 42: Thermodynamic solubility test results

Series [5] can be described thus: Pharmacokinetic test in mice. Type of series: in vivo. Conditions: mouse, plasma, male ICR mice. As for the experimental part: For the pharmacokinetic test in mice, 3 male ICR mice, 20 to 25 g, were used, fasted overnight, and administered by tail vein injection (1 mg/kg or 5 mg/kg). Blood was collected before the administration, and at 15 min, 30 min, 1 hour, 2 hours, 4 hours, 8 hours, and 24 hours after the administration. Another 3 mice were taken and administered by oral gavage (5 mg/kg), and blood was collected before the administration, and at 15 min, 30 min, 1 hour, 2 hours, 4 hours, 8 hours, and 24 hours after the administration. Blood samples were centrifuged at 6800 g at 2 to 8°C for 6 min, and plasma was collected and stored at -80°C. The plasma at each time point was taken and added with an acetonitrile solution containing internal standard in 3 to 5 times the amount. The mixture was vortexed and mixed for 1 min, and centrifuged at 13,000 rpm at 4°C for 10 min. The supernatant was collected, added with water in 3 times the amount, and mixed. An appropriate amount of the mixture was taken for LC-MS/MS analysis. The main pharmacokinetic parameters were analyzed using WinNonlin 7.0 software with non-compartmental model. Table 43: Results 1 of pharmacokinetic tests in mice

A short description of series [6]: Human liver microsome stability test. In kind it is in vitro ADME. The following applies: human liver microsomes, NADPH, 37°C, 0-45 min. As for the experimental part: The human liver microsome stability test was performed by incubating the compound and human liver microsomes in vitro. First, the compound to be tested was prepared into a 10 mM stock solution in DMSO solvent, and then the compound was diluted to 0.5 mM with acetonitrile. Human liver microsomes (Corning) were diluted with PBS into a microsome/buffer solution, and the solution was used to dilute 0.5 mM compound into a working solution, in which the concentration of the compound was 1.5 µM, and the concentration of human liver microsomes was 0.75 mg/mL. A deep-well plate was taken, 30 µL of the working solution was added per well, and then 15 µL of pre-heated 6 mM NADPH solution was added thereto to initiate a reaction, and the reaction was incubated at 37°C. At 0, 5, 15, 30 and 45 min of the incubation, 135 µL of acetonitrile was added to the corresponding wells to terminate the reaction. After the reaction was terminated with acetonitrile at the last time point of 45 min, the deep-well plate was vortexed and shaken for 10 min (600 rpm), and then centrifuged for 15 min. After centrifugation, the supernatant was collected, and added with purified water in a ratio of 1:1 to perform LC-MS/MS detection. A ratio of a peak area of compound to a peak area of internal standard at each time point was obtained, and the peak area ratios of the compound at 5, 15, 30 and 45 min were compared with the peak area ratio at 0 min to calculate the remaining percentage of the compound at each time point. T1/2 was calculated by using GraphPad 5 software. Table 45: Results of human liver microsome stability test
Background: Liver microsomes are vesicles of endoplasmic reticulum, rich in cytochrome P450 enzymes.

A short description of series [7]: Hygroscopicity test by dynamic vapor sorption (DVS). Type of series: physicochemical. Conditions: DVS, 25°C, 0%RH to 95%RH. As for the experimental part: The dynamic vapor sorption (DVS) curve was collected on DVS IntrInsic from SMS (surface measurement systems). The relative humidity at 25°C was corrected using the deliquescence points of LiCl, Mg(NO3)2, and KCl. Table 18 DVS test parameters
The percentage change in sample mass was collected under constant temperature at 25°C as humidity varied from 0%RH to 95%RH.

A short description of series [8]: Solid-state stability (XRPD and HPLC after open storage). Conditions: for Crystal form: XRPD. In kind it is physicochemical. The procedure:
The purity test, dynamic solubility test, and stability test in the assay were measured using an Agilent 1260 high-performance liquid chromatograph, and the salt formation molar ratio of ions was tested by ion chromatography, and the analytical conditions are shown in Table 19 and Table 20. Table 19 High-performance liquid chromatography test conditions

Series [9] in a line: Suspension competition test between free form crystal forms A and B. Type of series: physicochemical. Conditions: in words; at room temperature and 50°C, compared with the free form crystal form B. From the text:
Table 24 Suspension competition test results between free form crystal forms A and B

Series [10] in a line: Dynamic solubility experiment at 37°C (water, SGF, FaSSIF, FeSSIF). Conditions: for S: solubility: solid feed 10 mg/mL; for pH: pH value of the filtrate.
Method: Rotating mixing was carried out at 37°C at a solid feed concentration of 10 mg/mL (calculated as the compound of Formula I). […] After sampling at each time point, the samples were centrifuged (10000 rpm) and filtered (0.45 µm PTFE filter head), and the HPLC concentration and pH value of the filtrate were measured.
100 mg of NaCl and 50 mg of Triton X-100 were weighed into a 50 mL volumetric flask, and purified water was added to complete dissolution. 816 µL of 1 M hydrochloric acid was added thereto, and the pH was adjusted to 1.8 with 1 M hydrochloric acid or 1 M NaOH solution. Purified water was added to make up to volume.
340 mg of anhydrous NaH2PO4 and 620 mg of NaCl were weighed into a 100 mL volumetric flask. Purified water was added to complete dissolution, followed by addition of 55.44 µL of 50% NaOH solution, and the pH was adjusted to 6.5 using 1M HCl or 1M NaOH solution. Purified water was added to make up to volume. 110 mg of SIF powder was then weighed into a 50 mL volumetric flask, added with the above solution to complete dissolution and make up to volume.
0.82 mL of glacial acetic acid and 1.18 g of NaCl were added to a 100 mL volumetric flask. Purified water was added to complete dissolution, followed by addition of 528 µL of 50% NaOH solution, and the pH was adjusted to 5.0 using 1M HCl or 1M NaOH solution. Purified water was added to make up to volume. 560 mg of SIF powder was then weighed into a 50 mL volumetric flask, added with the above solution to complete dissolution and make up to volume.
The mark [11] stands for this setting: intravenous injection administration (1 mg/kg).
Setting [12] is: oral gavage administration (5 mg/kg).

We go through two compounds from patent EP4745130A1, “CRYSTAL FORMS OF TUBULIN-SRC DUAL-TARGETING INHIBITOR, PREPARATION METHOD THEREFOR AND USE THEREOF” (Hubei Bio-Pharmaceutical Industrial Technological Institute …, priority 2023, dated 2025).

≈ marks a conversion by molar mass, not a printed value. Like-named read-outs stand apart in the source and are kept apart here.

T1 sequence (P02550 whole entry): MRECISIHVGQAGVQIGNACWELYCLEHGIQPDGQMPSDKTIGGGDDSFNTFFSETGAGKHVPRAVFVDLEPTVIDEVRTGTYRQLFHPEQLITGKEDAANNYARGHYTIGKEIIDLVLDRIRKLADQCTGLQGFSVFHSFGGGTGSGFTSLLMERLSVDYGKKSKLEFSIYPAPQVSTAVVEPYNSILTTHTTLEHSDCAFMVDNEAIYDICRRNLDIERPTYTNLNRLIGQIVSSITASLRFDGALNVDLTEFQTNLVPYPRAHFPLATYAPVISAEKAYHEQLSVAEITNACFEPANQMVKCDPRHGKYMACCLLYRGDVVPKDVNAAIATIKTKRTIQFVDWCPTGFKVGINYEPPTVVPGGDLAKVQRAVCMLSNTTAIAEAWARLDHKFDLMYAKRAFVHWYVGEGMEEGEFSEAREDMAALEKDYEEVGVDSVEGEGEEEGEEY
T1 sequence (P02554 whole entry): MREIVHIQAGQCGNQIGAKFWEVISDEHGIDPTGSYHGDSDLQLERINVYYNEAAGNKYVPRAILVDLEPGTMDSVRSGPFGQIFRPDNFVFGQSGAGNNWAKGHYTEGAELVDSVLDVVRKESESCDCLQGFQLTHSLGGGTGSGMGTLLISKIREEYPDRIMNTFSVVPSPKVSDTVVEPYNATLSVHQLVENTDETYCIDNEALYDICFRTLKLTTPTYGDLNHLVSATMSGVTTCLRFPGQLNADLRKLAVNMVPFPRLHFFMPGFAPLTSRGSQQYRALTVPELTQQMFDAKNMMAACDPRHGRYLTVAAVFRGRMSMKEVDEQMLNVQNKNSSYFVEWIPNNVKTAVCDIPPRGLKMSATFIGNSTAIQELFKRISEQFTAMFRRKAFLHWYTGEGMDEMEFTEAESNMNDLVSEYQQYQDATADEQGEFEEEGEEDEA

As a reminder, the IC50 is the concentration that gives 50% inhibition. Read a high IC50 as weaker potency. What is called AUC(0-t) is the area under the concentration-time curve up to a stated or last time point. Low values mean low exposure, high ones high exposure. By clearance is commonly meant a measure of how efficiently the substance is removed, as volume per time. A high value points to a high capacity for elimination. One may read the Cmax as the highest concentration seen after dosing. What is called half-life is the time needed for the level to fall by half in the phase considered. Higher therefore signals slow decline. In series [1], `O=C(Cc1ccc(-c2ccc(OCCN3CCOCC3)cc2)cn1)NCc1ccccc1` [Control compound, Tirbanibulin, reference compound] had a Maximum signal value of 611. For the same compound, the figures for the IC50 in series [2] and in [3] were 40.3 nM and 85.4 nM, respectively. Moreover, the solubility stood at 60.5 µg/mL (≈ 140 µM) in series [4] (FeSSIF solution, FeSSIF (pH 6.5), read-out: Solubility (µg/mL) FeSSIF (pH 6.5)) and 9.77 µg/mL (≈ 22.6 µM) in series [4] (phosphate buffer saline (PBS), aqueous buffer, PBS (pH 7.4), read-out: Solubility (µg/mL) PBS (pH 7.4)). The AUC(0-t) in series [5] (setting [11]) turned out to be 525 ng·h/mL; in series [5] (setting [12]), 1820 ng·h/mL. The same compound showed a clearance in series [5] (setting [11]) of 31.3 mL/min/kg. In series [5] (setting [12]), this compound returned a Cmax of 1010 ng/mL. In series [6], this compound displayed a half-life at 1 µM of 32.2 min.
For the compound `Cc1cc(OCCN2C[C@H]3COC[C@H]3C2)ccc1-c1ccc(CC(=O)NCc2ccccc2)nc1` [Free form crystal form A], in [7], the hygroscopicity entry is on record as “almost non-hygroscopic”. Moreover, the “Purity (area%)” value in series [8] (25°C/60%RH/open, 1 week) came out at 96.76 area%; in [8] (40°C/75%RH/open, 1 week), 96.70 area%; in series [8] (Initial), 96.86 area%. Besides, the “Relative to initial (%)” value in series [8] (25°C/60%RH/open, 1 week) is 99.9%; in series [8] (40°C/75%RH/open, 1 week), 99.8%. For the same compound, the Crystal form result is recorded as “Free form crystal form A” in [8] (25°C/60%RH/open, 1 week) and “Free form crystal form A” in series [8] (40°C/75%RH/open, 1 week). Moreover, in [9], the thermodynamic stability result is “thermodynamically more stable crystal form”. Also, the “S: solubility” value in [10] (FaSSIF, 1 hour, 60 min) worked out at 720 µg/mL; in series [10] (FaSSIF, 4 hours, 240 min), 700 µg/mL; in series [10] (FaSSIF, 24 hours, 1440 min), 630 µg/mL; in series [10] (FeSSIF, 1 hour, 60 min), 3460 µg/mL; in [10] (FeSSIF, 4 hours, 240 min) it was 3740 µg/mL; in [10] (FeSSIF, 24 hours, 1440 min), 3460 µg/mL. Further, the “S: solubility” value in series [10] (H2O, 1 hour, 60 min) worked out at 60 µg/mL; in [10] (H2O, 4 hours, 240 min), 80 µg/mL; in [10] (H2O, 24 hours, 1440 min), 60 µg/mL; in series [10] (SGF, 1 hour, 60 min) it was 6710 µg/mL; in series [10] (SGF, 4 hours, 240 min), 6770 µg/mL; in series [10] (SGF, 24 hours, 1440 min), 6610 µg/mL. The pH is reported as 6.6 in series [10] (FaSSIF, 1 hour); 6.6 in [10] (FaSSIF, 4 hours); 6.6 in series [10] (FaSSIF, 24 hours); 5.3 in series [10] (FeSSIF, 1 hour); 5.4 in [10] (FeSSIF, 4 hours); 5.4 in [10] (FeSSIF, 24 hours). Moreover, the pH in series [10] (H2O, 1 hour) is 8.6; in [10] (H2O, 4 hours), 8.6; in series [10] (H2O, 24 hours), 8.5; in series [10] (SGF, 1 hour), 5.7; in series [10] (SGF, 4 hours), 5.8; in series [10] (SGF, 24 hours) it was 5.9.
